Measurements: US9244073B2, “Assays for detecting enzymatic activity” (Wellstat Diagnostics, LLC, priority 2011, dated 2016)

Experiments:
Format in all cases: biochemical
bovine FX = assay: Detecting plasma FIX activity by detecting FXa activity using an immunoassay (ECL); settings: diluted reference plasma
Protocol: A FIX activity calibrator curve was set up in a 96-well U bottom microtiter plate, which was equilibrated to 37° C. in an incubator. All coagulating factor reagents were from Haematologic Technologies, Inc. ((HTI), Essex Junction, Vt.), unless specifically noted. To 50 μL of a factor reagent containing 1.6 nM bovine FXIa (Cat: HCX1A-0160), 0.0681 nM bovine α-thrombin (Cat: BCT-1020), 24.5 nM bovine FX (BCX-1050), […] FVIII (Cat: PRO-318, PROSPEC, Rehovot, Israel), 100 μM phosphorliposome (80% phosphatidylcholine and 20% phosphatidylserine) and 0.75 mM Gly-Pro-Arg-Pro amide (Cat: GPRP-NH2. Sigma, St. Louis; SEQ ID NO:32), 25 μL of a diluted reference plasma (HEMOSIL™ Calibration Plasma, Cat: 0020003700, Diapharma Group Inc., Columbus, Ohio) containing 24.4, 8.13, 2.71, 0.904, 0.301, 0.100 and 0.0335 mU/mL of FIX in the assay buffer (Example 4) were added, mixed and incubated for exactly 10 minutes in a hot plate set at 37° C. After the incubation, to the 75 μL of assay mixture, 50 μL of a master mix of FXa detection reagent (Example 4), containing 200 μg/mL of M280-SA beads, 600 ng/mL of a peptide (peptide sequence III), 1000 ng/mL of TAG Plus anti-FLAG® M1 antibody (Example 2), and 30 μg/mL I-2581 (synthetic thrombin inhibitor, cat: 82110810, DiaPharma Group Inc. West Chester, Ohio 45069) in assay buffer (Example 4) was added and incubated for a final 20 minutes at 37° C. After the incubation, the beads were washed once in 150 μL of a PBS-based buffer solution (Example 3) and were resuspended in 150 μL of the same buffer before beads were read in a M1MR analyzer (BioVeris).

bovine factor Xa = assay: Detecting heparin activity with an ECL-based FXa activity immunoassay (with human antithrombin)
Protocol: A heparin activity calibrator curve was set up in a 96-well U bottom microtiter plate, which was equilibrated to 37° C. in an incubator. To each well, 25 μL of 100, 50, 25, 12.5, 6.25 and 3.13 mIU/mL heparin prepared from a heparin sodium Salt (Cat: H4784-2500MG, Sigma, St. Louis) and 25 μL of 1.0 IU/mL human antithrombin (from kit of BIOPHEN Heparin Anti-Xa, Ref: 221010, Aniara Diagnostica LLC, Columbus, Ohio) were added and incubated for 2 minutes at 37° C. Then to the mixture, 25 μL of 8.0 μg/mL bovine factor Xa (from kit of BIOPHEN Heparin Anti-Xa, Ref: 221010, Aniara Diagnostica LLC, Columbus, Ohio) was added, followed immediately with 25 μL of a master mix of FXa detection reagent containing 400 μg/mL of M280-SA beads, 1.2 μg/mL of a peptide (peptide sequence V), 2.0 μg/mL of TAG Plus anti-FLAG® M1 antibody (Example 2) and 25 mM CaCl2. The subsequent mixture was incubated for a final 20 minutes at 37° C. After the incubation, the beads were washed once in 150 μL of the PBS-based buffer solution (Example 3) and were resuspended in 150 μL of the same buffer before beads were read in a M1MR Analyzer (BioVeris).

FXa = assay: Detecting FXa activity by detection of a neoepitope, competitive immunoassay format (ECL); settings: for % Signal Decrease / Mean Signal: 15 minutes at 37° C.
Description: Another method for detecting FXa activity uses a competitive immunoassay format. For example, peptide sequence VI, below, comprises a FXa recognition site (-IEGR-) (SEQ ID NO:1) at its N-terminus and the peptide sequence IV-amide (DYKDDDDKGS-amide) (SEQ ID NO:4) at its C-terminus. The FXa cleavage of the peptide bond after the arginine residue of -IEGR- (SEQ ID NO:1) sequence produces a neoepitope (SEQ ID NO:4), which can be measured with a TAG Plus-conjugated peptide (sequence VII) and a capture antibody in a competitive immunoassay format.
A FXa activity calibrator curve was set up in a 96-well U bottom microtiter plate containing 100 μL of a 3-fold serial dilution of FXa at 500, 167, 55.6, 18.5, 6.17, 2.06 and 0.686 ng/mL in the assay buffer (Example 4) and 50 μL of a master mix of FXa detection reagent containing 200 μg/mL of M280-SA beads prebound with biotinylated capture antibody (5.0 μg antibody per 1.0 mg of beads) (anti-FLAG® MD, 200 μg/mL of the NH2-IEGRDYKDDDDKGS-amide (Peptide sequence VI; SEQ ID NO:5) and 100 ng/mL of NH2-DYKDDDDKGS-TAG Plus (Peptide sequence VII; SEQ ID NO:4) in the same assay buffer. The plate was incubated on a hot plate (Example 4) at 37° C. for 15 minutes. After the incubation, the beads were washed once in 150 μL of the PBS-based buffer solution (Example 3) and were resuspended in 150 μL of the PBS-based buffer and read in a M1MR analyzer (BioVeris). FXa activities were detectable at 1.0 ng/mL or lower concentrations which produced about a 10% decrease of the background signals (the sample without FXa).

Chain of bovine factor Xa (P01008 33-464): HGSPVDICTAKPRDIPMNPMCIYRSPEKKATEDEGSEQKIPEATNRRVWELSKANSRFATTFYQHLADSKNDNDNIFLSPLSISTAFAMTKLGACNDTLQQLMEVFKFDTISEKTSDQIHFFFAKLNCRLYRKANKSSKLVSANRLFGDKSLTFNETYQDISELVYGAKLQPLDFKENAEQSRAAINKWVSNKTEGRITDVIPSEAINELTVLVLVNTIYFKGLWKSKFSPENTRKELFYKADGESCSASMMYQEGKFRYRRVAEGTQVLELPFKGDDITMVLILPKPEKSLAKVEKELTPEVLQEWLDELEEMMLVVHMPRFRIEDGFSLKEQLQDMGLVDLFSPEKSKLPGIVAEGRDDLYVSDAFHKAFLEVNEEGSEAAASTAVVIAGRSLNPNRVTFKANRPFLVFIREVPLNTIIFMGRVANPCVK
Chain of FXa (P00742 41-179 limits assumed): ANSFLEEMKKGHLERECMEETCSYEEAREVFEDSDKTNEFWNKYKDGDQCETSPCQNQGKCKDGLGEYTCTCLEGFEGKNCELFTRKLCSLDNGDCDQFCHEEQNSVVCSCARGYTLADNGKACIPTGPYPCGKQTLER
Chain of FXa (P00742 235-488 limits assumed): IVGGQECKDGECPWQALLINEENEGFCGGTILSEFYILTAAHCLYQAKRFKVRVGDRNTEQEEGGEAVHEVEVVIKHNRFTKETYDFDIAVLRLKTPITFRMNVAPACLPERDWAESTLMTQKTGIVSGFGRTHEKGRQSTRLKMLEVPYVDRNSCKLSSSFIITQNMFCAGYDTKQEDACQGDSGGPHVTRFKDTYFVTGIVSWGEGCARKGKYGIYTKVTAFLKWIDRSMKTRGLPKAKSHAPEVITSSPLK

## FIX: FIX in diluted reference plasma (HEMOSIL Calibration Plasma)
Bovine FX; FIX 0.0335 mU/mL
  Mean Signal: 3665
  Signal/Background: 1.1
Bovine FX; FIX 0.100 mU/mL
  Mean Signal: 4050
  Signal/Background: 1.2
Bovine FX; FIX 0.301 mU/mL
  Mean Signal: 5626
  Signal/Background: 1.6
Bovine FX; FIX 0.904 mU/mL
  Mean Signal: 8707
  Signal/Background: 2.5
Bovine FX; FIX 2.71 mU/mL
  Mean Signal: 16884
  Signal/Background: 4.9
Bovine FX; FIX 8.13 mU/mL
  Mean Signal: 30879
  Signal/Background: 9.0
Bovine FX; FIX 24.4 mU/mL
  Mean Signal: 40234
  Signal/Background: 11.7

## heparin sodium Salt
Bovine factor Xa; Heparin 3.13 mIU/mL
  % Signal Decrease: −19%
  Mean Signal: 81999
Bovine factor Xa; Heparin 6.25 mIU/mL
  % Signal Decrease: −38%
  Mean Signal: 62502
Bovine factor Xa; Heparin 12.5 mIU/mL
  % Signal Decrease: −60%
  Mean Signal: 40868
Bovine factor Xa; Heparin 25.0 mIU/mL
  % Signal Decrease: −81%
  Mean Signal: 19648
Bovine factor Xa; Heparin 50.0 mIU/mL
  % Signal Decrease: −93%
  Mean Signal: 7203
Bovine factor Xa; Heparin 100 mIU/mL
  % Signal Decrease: −97%
  Mean Signal: 3322

## NH2-IEGRDYKDDDDKGS-amide (H-IEGRDYKDDDDKGS-NH2) [Peptide sequence VI]
FXa; FXa 1.0 ng/mL or lower, background = sample without FXa
  decrease of the background signals at the detectable FXa concentration: ~10%
FXa; Xa 0.686 ng/mL
  % Signal Decrease: −8.5%
  Mean Signal: 84026
FXa; Xa 2.06 ng/mL
  % Signal Decrease: −22%
  Mean Signal: 71945
FXa; Xa 6.17 ng/mL
  % Signal Decrease: −42%
  Mean Signal: 52963
FXa; Xa 18.5 ng/mL
  % Signal Decrease: −60%
  Mean Signal: 36383
FXa; Xa 55.6 ng/mL
  % Signal Decrease: −75%
  Mean Signal: 22509
FXa; Xa 167 ng/mL
  % Signal Decrease: −84%
  Mean Signal: 14300
FXa; Xa 500 ng/mL
  % Signal Decrease: −89%
  Mean Signal: 9830
